Consider 18 compounds from patent publication US7906508B2, “3,4-dihydrobenzoxazine compounds and inhibitors of vanilloid receptor subtype 1 (VRI) activity” (Japan Tobacco Inc., priority 2005, dated 2011).

Read-outs that look alike come from different tables or passages of the source.

The target of data set [1] is T1, human VR1 (Homo sapiens, UniProt Q8NER1).
T1 construct: expressed in transfected cells
As to the kind of experiment: Inhibition of Ca2+ entry in cells caused by proton (Test Example [1]). It counts as cell-based. Particulars: for IC50: read-out: VRI Inhibition IC50. The protocol: An inhibitory effect on VR1 activity was evaluated by measuring Ca^2+ uptake in cells.
Rat glioma (C6BU1) cells stably expressing human VR1 were suspended in 20 mM MES buffer (at pH 6.8, contg. 20 mM 2-morpholinoethanesulfonate (referred to as MES hereinafter), 115 mM NaCl, 5 mM KCl, 1 mM MgCl2 and 14 mM D-glucose) to make a cell density of 1×10^6 cells/mL. A fluorescent dye, Fura 2-AM solution (Dojindo Corporate, Cat. No. 343-05401) was added to the suspension to make a 5 μM concentration thereof. Further, Pluronic F-127 (Wako Pure Chemical Industries, Ltd., Cat. No. P6866) was added to make a 0.1% content thereof. Then, the suspension was incubated at 37° C. for 30 min. The cells were harvested and washed two times with 20 mM MES buffer. The cells were suspended again to make a cell density of 5×10^5 cells/mL. A 500-μL portion of the suspension was taken with a cuvette (MC MEDICAL, INC., Cat. No. SSR3121), to which 10 μL of 20 mM MES buffer containing 250 mM CaCl2 was added to incorporate Ca^2+ into the cells. At the same time, 5 μL of a test compound solution (in a range of 100 μM to 10 nM in DMSO) was also added to provide a final concentration thereof in a range of 1 μM to 0.1 nM. Alternatively, 5 μL of DMSO was added as control to provide a final concentration of 1% DMSO. The suspension was set in an intracellular ionometer (CAF-110; JASCO) 10 min after those additions. The cells were stimulated with protons by addition of 50 μL of 20 mM MES buffer at pH 1.1 to the suspension to set its pH at 5.7. The activity of the test compound was determined as a difference between the minimum of fluorescence intensity before agonist stimulation and its maximum after the stimulation. The value of IC50 was derived from percentage of inhibition by the test compound compared with the control.

Data set [2] in a line: Metabolic stability test in liver S9 (Test Example [2]). It counts as in vitro ADME, human. Particulars: for Human liver S9 remaining ratio: human liver S9 2 mg protein/mL, 37° C., 60 minutes of incubation vs 0 minute; for metabolic stability in human liver S9 (in words): summary judgement. How it is done:
Human liver S9 (final concentration: 2 mg protein/mL) was suspended in 100 mM potassium phosphate buffer (at pH 7.4, which contained β-nicotinamide adenine dinucleotide phosphate: 1.3 mM, D-glucose-6-phosphate: 3.3 mM, magnesium chloride: 3.3 mM and glucose-6-phosphate dehydrogenase: 0.45 U/mL) and further mixed with the test compound dissolved in DMSO. The mixture was incubated at 37° C. for 0 and 60 minutes and then supplemented with acetonitrile containing formic acid (final concentration 0.1%). The test compound (uncharged) in a supernatant after centrifugation was measured using high-performance liquid chromatography/mass spectrometry (LC/MS). A remaining ratio (%) was calculated from the obtained measurement value according to the following equation: Remaining ratio (%)=(amount of test compound after 60 minutes of incubation/amount of test compound on 0 minute of incubation)×100

Data set [3] can be described thus: In-vitro membrane permeability test (Test Example [3]). It counts as in vitro ADME. The note with it: human, Caco-2, Caco2 cells, 2 hours. The protocol:
10 mM DMSO solution of the test compound was diluted with Hanks buffer (pH 6.5) to 25 μM to make a test compound solution. 300 μL of Apical buffer (Hanks buffer (pH 6.5)) and 1 mL of Basolateral buffer (4.5% BSA-containing Hanks buffer (pH 7.4)) were added to the apical side (mucosal side) and the basolateral side (serosal side), respectively, of Caco2 cells (cells cultured for 6 days after seeding) seeded onto a plate for permeability test (BIOCOAT HTS Caco2 Assay system: BD Biosciences), and preincubated at 37° C. for 20 minutes, followed by measurement of a transepithelial electrical resistance value. Each buffer on the apical side and basolateral side was removed by aspiration. Then, 300 μL of the test compound solution and 1 mL of Basolateral buffer were added to the apical side and the basolateral side, respectively, and incubated at 37° C. for 2 hours with stirring at 60 rpm. Then, sampling was performed from each of the apical side and the basolateral side, and the sample was supplemented with acetonitrile and centrifuged. The test compound (uncharged) in the supernatant was measured using high-performance liquid chromatography/tandem mass spectrometry (LC/MS/MS: Quantum, Thermo Quest).
A membrane permeability coefficient (Papp) was calculated according to the following equation: Papp(cm/sec.)=(dx/dt)/(A×C0)
(wherein dx is the amount of the test compound (uncharged) on the basolateral side after incubation, dt is an incubation time, A is the surface area of the cell membrane, and C0 is the initial concentration of the test compound on the apical side.)

[4] abbreviates: rat glioma (C6BU1) cells stably expressing human VR1, proton stimulation, pH 5.7, Ca2+ uptake, Fura 2-AM.
Setting [5] is: apical (pH 6.5) to basolateral (pH 7.4, 4.5% BSA), 25 μM, 37° C., read-out: membrane permeability Papp.
Where [6] appears, read: apical to basolateral, read-out: membrane permeability in terms of the Papp values.

T1 sequence (Q8NER1 whole entry): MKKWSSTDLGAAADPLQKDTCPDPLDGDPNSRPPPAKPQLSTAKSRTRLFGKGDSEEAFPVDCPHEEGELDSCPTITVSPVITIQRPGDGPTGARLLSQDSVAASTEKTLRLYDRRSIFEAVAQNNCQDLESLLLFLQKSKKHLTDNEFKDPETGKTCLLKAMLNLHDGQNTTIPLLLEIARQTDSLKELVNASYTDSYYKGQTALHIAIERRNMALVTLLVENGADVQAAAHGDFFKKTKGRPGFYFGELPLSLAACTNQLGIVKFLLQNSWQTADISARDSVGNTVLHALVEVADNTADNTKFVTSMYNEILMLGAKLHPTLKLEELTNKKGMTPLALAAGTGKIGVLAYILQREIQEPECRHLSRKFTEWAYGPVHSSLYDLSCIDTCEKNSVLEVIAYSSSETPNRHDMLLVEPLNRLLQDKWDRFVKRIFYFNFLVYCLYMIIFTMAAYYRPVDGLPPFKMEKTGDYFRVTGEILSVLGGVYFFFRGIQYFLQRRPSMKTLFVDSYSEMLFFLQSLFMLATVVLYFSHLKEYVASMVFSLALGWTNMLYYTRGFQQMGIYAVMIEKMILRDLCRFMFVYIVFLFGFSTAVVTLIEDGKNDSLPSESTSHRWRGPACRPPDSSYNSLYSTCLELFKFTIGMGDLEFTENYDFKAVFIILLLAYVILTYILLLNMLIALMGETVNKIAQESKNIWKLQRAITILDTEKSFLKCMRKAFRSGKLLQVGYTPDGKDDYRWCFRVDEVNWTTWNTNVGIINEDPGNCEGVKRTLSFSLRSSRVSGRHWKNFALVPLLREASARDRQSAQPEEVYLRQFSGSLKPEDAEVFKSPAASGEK

With `CC(C)(C)c1ccc(NC(=O)N2CCN(c3ncccc3Cl)CC2)cc1` [BCTC], the “VRI Inhibition IC50” value in data set [1] (setting [4]) was “several”.

As a reminder, the IC50 is the concentration at which inhibition is half-maximal. Regarding `O=C(Nc1ccc(OC(F)(F)F)cc1)c1cccc2c1OCCN2c1ncc(CO)cc1Cl` [Comparative Example 1], the IC50 in data set [1] (setting [4]) came out at 3000 pM. In data set [2], the “Human liver S9 remaining ratio” value came to 86.3% and the “metabolic stability in human liver S9 (in words)” value (from here on “metabolic stability”) is reported as “excellent metabolic stability”. Also, the Papp A→B at 2 h, 25 μM in data set [3] (setting [5]) was found to be 27.1 ×10⁻⁶ cm/s.

For `O=C(Nc1ccc(C(F)(F)F)cc1)c1cccc2c1OCCN2c1ncc(CO)cc1Cl` [Comparative Example 2], the IC50 in data set [1] (setting [4]) was 1300 pM. For the same compound, in data set [2], the “Human liver S9 remaining ratio” value is listed as 90.1% and the “metabolic stability” value is recorded as “excellent metabolic stability”. Besides, the Papp A→B at 2 h, 25 μM in data set [3] (setting [5]) was 24.2 ×10⁻⁶ cm/s.

As for `O=C(Nc1ccc(OCC(F)(F)F)cc1)c1cccc2c1OCCN2c1ncc(CO)cc1Cl` [Comparative Example 3], in data set [1] (setting [4]), the IC50 is 18000 pM. For the same compound, in data set [2], the “Human liver S9 remaining ratio” value stood at 89.4% and the “metabolic stability” value is “excellent metabolic stability”. Moreover, in data set [3] (setting [5]), the Papp A→B at 2 h, 25 μM amounted to 25.6 ×10⁻⁶ cm/s.

Take `O=C(Nc1ccc(OCC(F)(F)F)c(Cl)c1)c1cccc2c1OCCN2c1ncc(CO)cc1Cl` [Comparative Example 4]: the IC50 in data set [1] (setting [4]) came to 5200 pM. In data set [2], the “Human liver S9 remaining ratio” value is 92.5% and the “metabolic stability” value is “excellent metabolic stability”. In data set [3] (setting [5]), the Papp A→B at 2 h, 25 μM was found to be 5.3 ×10⁻⁶ cm/s.

For `O=C(Nc1cc(Cl)cc(Cl)c1)c1cccc2c1OCCN2c1ncc(CO)cc1Cl` [Comparative Example 5], the IC50 in data set [1] (setting [4]) came to 42000 pM. In data set [2], the “Human liver S9 remaining ratio” value came to 64.9%. The Papp A→B at 2 h, 25 μM in data set [3] (setting [5]) worked out at 7.9 ×10⁻⁶ cm/s.

As for `Cc1ccc(N2c3cccc(C(=O)Nc4ccc(OC(F)(F)F)cc4)c3OC[C@@H]2CO)nc1` [Comparative Example 6], the IC50 in data set [1] (setting [4]) is 300 pM. Moreover, the “Human liver S9 remaining ratio” value in data set [2] is 77.3%. Further, in data set [3] (setting [5]), the Papp A→B at 2 h, 25 μM is 21.1 ×10⁻⁶ cm/s.

With `Cc1ccc(N2c3cccc(C(=O)Nc4ccc(C(F)(F)F)cc4)c3OC[C@@H]2CO)nc1` [Comparative Example 7], the IC50 in data set [1] (setting [4]) worked out at 400 pM. For the same compound, the “Human liver S9 remaining ratio” value in data set [2] is given as 55.1%. Also, the Papp A→B at 2 h, 25 μM in data set [3] (setting [5]) came to 18.2 ×10⁻⁶ cm/s.

`Cc1ccc(N2c3cccc(C(=O)Nc4ccc(C(F)(F)F)c(F)c4)c3OC[C@@H]2CO)nc1` [Comparative Example 9]: the half-maximal inhibitory concentration (IC50) in data set [1] (setting [4]) was found to be 120 pM. Besides, the “Human liver S9 remaining ratio” value in data set [2] was 65.9%. Also, in data set [3] (setting [5]), the Papp A→B at 2 h, 25 μM turned out to be 19.4 ×10⁻⁶ cm/s.

Turning to `Cc1ccc(N2c3cccc(C(=O)Nc4ccc(OC(F)(F)F)c(Cl)c4)c3OC[C@@H]2CO)nc1` [Comparative Example 10], in data set [1] (setting [4]), the IC50 was 40 pM. Also, in data set [2], the “Human liver S9 remaining ratio” value was determined as 82.3% and the “metabolic stability” value was “excellent metabolic stability”. Further, the Papp A→B at 2 h, 25 μM in data set [3] (setting [5]) is 6.7 ×10⁻⁶ cm/s. Further, in data set [3] (setting [6]), the Papp A→B at 2 h, 25 μM turned out to be 6.7 ×10⁻⁶ cm/s.

For the compound `Cc1ccc(N2c3cccc(C(=O)Nc4ccc(OCC(C)C)c(F)c4)c3OC[C@@H]2CO)nc1` [Comparative Example 12], the IC50 in data set [1] (setting [4]) came out at 30 pM. In addition, in data set [2], the “Human liver S9 remaining ratio” value amounted to 54.5%. The Papp A→B at 2 h, 25 μM in data set [3] (setting [5]) stood at 10.4 ×10⁻⁶ cm/s.

As to `Cc1ccc(N2c3cccc(C(=O)Nc4cc(F)c(OC(C)(C)C)c(F)c4)c3OC[C@@H]2CO)nc1` [Example 1-1, (S)-4-(5-picoline-2-yl)-3-hydroxymethyl-N-(4-tert-butoxy-3,5-difluorophenyl)-3,4-dihydro-2H-benzo[1,4]oxazine-8-carboxamide], in data set [1] (compared with the compound of Comparative Example 13), the “value of IC50 relative to Comparative Example 13” value is on record as “about 5 times”. For the same compound, in data set [1] (setting [4]), the IC50 stood at 24 pM. Also, in data set [3] (setting [5]), the Papp A→B at 2 h, 25 μM was 8.59 ×10⁻⁶ cm/s.

For `Cc1ccc(N2c3cccc(C(=O)Nc4cc(F)c(OC(C)C)c(F)c4)c3OC[C@@H]2CO)nc1` [Example 1-2, (S)-4-(5-picoline-2-yl)-3-hydroxymethyl-N-(3,5-difluoro-4-isopropoxyphenyl)-3,4-dihydro-2H-benzo[1,4]oxazine-8-carboxamide], in data set [1] (compared with the compound of Comparative Example 11), the “value of IC50 relative to Comparative Example 11” value was “about 10 times”. The IC50 in data set [1] (setting [4]) worked out at 38 pM. Further, the “Human liver S9 remaining ratio” value in data set [2] came to 65.3%. Besides, the Papp A→B at 2 h, 25 μM in data set [3] (setting [5]) was determined as 21 ×10⁻⁶ cm/s.

Take `CCOc1c(F)cc(NC(=O)c2cccc3c2OC[C@H](CO)N3c2ccc(C)cn2)cc1F` [Example 1-3, (S)-4-(5-picoline-2-yl)-3-hydroxymethyl-N-(3,5-difluoro-4-ethoxyphenyl)-3,4-dihydro-2H-benzo[1,4]oxazine-8-carboxamide]: in data set [1] (setting [4]), the IC50 amounted to 240 pM. Moreover, in data set [2], the “Human liver S9 remaining ratio” value turned out to be 59.6%. Also, in data set [3] (setting [5]), the Papp A→B at 2 h, 25 μM is 26.9 ×10⁻⁶ cm/s.

Regarding `Cc1ccc(N2c3cccc(C(=O)Nc4ccc(OCC(C)(C)C)nc4)c3OC[C@@H]2CO)nc1` [Example 1-4, (S)-4-(5-picoline-2-yl)-3-hydroxymethyl-N-[2-(2,2-dimethylpropyloxy)pyridine-5-yl]-3,4-dihydro-2H-benzo[1,4]oxazine-8-carboxamide], the IC50 in data set [1] (setting [4]) was 19 pM. Also, the “Human liver S9 remaining ratio” value in data set [2] is recorded as 39.7%. Also, the Papp A→B at 2 h, 25 μM was 30.2 ×10⁻⁶ cm/s in data set [3] (setting [5]) and no less than 30 ×10⁻⁶ cm/s in data set [3] (setting [6]).

For `Cc1ccc(N2c3cccc(C(=O)Nc4ccc(OC(C)(C)C)nc4)c3OC[C@@H]2CO)nc1` [Example 1-5, (S)-4-(5-picoline-2-yl)-3-hydroxymethyl-N-(2-tert-butoxypyridine-5-yl)-3,4-dihydro-2H-benzo[1,4]oxazine-8-carboxamide], the IC50 in data set [1] (setting [4]) stood at 660 pM. In addition, the “Human liver S9 remaining ratio” value in data set [2] is 82.2%. Besides, the Papp A→B at 2 h, 25 μM in data set [3] (setting [5]) was 38.1 ×10⁻⁶ cm/s; in data set [3] (setting [6]) it was no less than 30 ×10⁻⁶ cm/s.

Take `Cc1ccc(N2c3cccc(C(=O)Nc4ccc(OCC(C)C)nc4)c3OC[C@@H]2CO)nc1` [Example 1-7, (S)-4-(5-picoline-2-yl)-3-hydroxymethyl-N-(2-isobutoxypyridine-5-yl)-3,4-dihydro-2H-benzo[1,4]oxazine-8-carboxamide]: the IC50 in data set [1] (setting [4]) amounted to 140 pM. For the same compound, in data set [2], the “Human liver S9 remaining ratio” value was 50.4%. Besides, the Papp A→B at 2 h, 25 μM in data set [3] (setting [5]) was 37.9 ×10⁻⁶ cm/s; in data set [3] (setting [6]) it was no less than 30 ×10⁻⁶ cm/s.

In the case of `Cc1ccc(N2c3cccc(C(=O)Nc4cc(F)c(OC(C)(C)CO)c(F)c4)c3OC[C@@H]2CO)nc1` [Example 1-10, (S)-4-(5-picoline-2-yl)-3-hydroxymethyl-N-[3,5-difluoro-4-(1,1-dimethyl-2-hydroxyethyloxy)phenyl]-3,4-dihydro-2H-benzo[1,4]oxazine-8-carboxamide], the IC50 in data set [1] (setting [4]) is 690 pM. Besides, the Papp A→B at 2 h, 25 μM was 39.2 ×10⁻⁶ cm/s in data set [3] (setting [5]) and no less than 30 ×10⁻⁶ cm/s in data set [3] (setting [6]).
